From patent US7691858B2, “Kinase inhibitors and methods of use thereof” (TargeGen, Inc., priority 2006, dated 2010)
“Also recorded” adds a separate entry of the source.

Key:
[1] = test system: PAF-induced inflammatory edema; assay: Rat hindpaw inflammation model, PAF; assay type: in vivo, Sprague Dawley rats
Method: FIG. 4. Inhibition of edema and inflammation. (a, b) Rats were injected i.v. with Evans blue dye and then intradermally with saline, VEGF or histamine. […] (c-f) Rat hindpaws were injected with either PAF (c & d) or dextran (e & f), and three hours later processed as H&E-stained paraffin sections. […] Images were taken of paws representing the mean group value for volume as presented in Results (original magnification 200×).
The Miles assay models a primarily endothelial-based response that develops rapidly (within minutes). As a comparator, we next employed a rodent hindpaw model where more complex inflammatory reactions develop over several hours. Agonists included PAF, a GPCR ligand that activates both EC and leukocytes, and dextran, a phagocytic stimulus for mast cell and leukocyte activation. […] Paw volume (a more quantitative measure of edema and inflammation) was reduced by 62% and 78% in response to PAF or dextran, respectively (n=8, P<0.001). Finally, to correlate these in vivo responses with the molecular target of interest, we monitored PI3K pathway signaling through Western blot analyses of Akt phosphorylation (a PI3K-mediated event).
In order to determine the influence of compounds on the development of inflammation, Sprague Dawley rats were first injected intravenously with either vehicle or test compound at 5 mg/kg, and then 30 min later either PBS (as a control), dextran or platelet activating factor (PAF) was injected into the plantar surface of the hindlimbs, dextran and PAF being known to induce localized inflammatory responses marked by edema. Three hours later, paw dimensions were measured using a caliper and paw volumes calculated; data are shown as the increase in paw volume (mm^3) as compared to controls (paws injected with PBS).

SGK = target: T1, SGK (Homo sapiens, UniProt O00141, S422D); assay: Kinase panel screen; assay type: biochemical; conditions: Compound I and ATP 10 μM
T1 construct: purchased Upstate USA or Invitrogen (commercial screening service)
T1 sequence (O00141 60-431 S422D limits assumed): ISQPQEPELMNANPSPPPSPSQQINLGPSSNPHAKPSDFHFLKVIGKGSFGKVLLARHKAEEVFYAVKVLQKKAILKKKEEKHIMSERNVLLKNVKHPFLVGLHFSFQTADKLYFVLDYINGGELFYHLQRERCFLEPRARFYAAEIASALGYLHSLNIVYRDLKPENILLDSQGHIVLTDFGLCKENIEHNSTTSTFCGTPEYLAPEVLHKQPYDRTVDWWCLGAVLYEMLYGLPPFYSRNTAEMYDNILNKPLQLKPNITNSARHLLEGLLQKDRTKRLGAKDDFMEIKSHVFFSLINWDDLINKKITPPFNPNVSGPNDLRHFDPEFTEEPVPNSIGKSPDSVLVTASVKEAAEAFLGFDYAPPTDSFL

Pim-1 = target: T2, Pim-1 (Homo sapiens, UniProt P11309); assay: Kinase panel screen; assay type: biochemical; conditions: Compound I and ATP 10 μM
T2 construct: purchased Upstate USA or Invitrogen (contract screening service)
T2 sequence (P11309 whole entry): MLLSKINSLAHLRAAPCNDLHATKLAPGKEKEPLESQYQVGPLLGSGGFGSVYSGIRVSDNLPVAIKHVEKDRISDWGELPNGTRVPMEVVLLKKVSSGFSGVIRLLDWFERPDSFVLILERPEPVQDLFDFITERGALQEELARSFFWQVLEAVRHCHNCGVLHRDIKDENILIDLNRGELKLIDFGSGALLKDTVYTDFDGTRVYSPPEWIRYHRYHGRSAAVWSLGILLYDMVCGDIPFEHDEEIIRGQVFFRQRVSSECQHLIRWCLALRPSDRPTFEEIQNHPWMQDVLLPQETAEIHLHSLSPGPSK

INK3 = INK3 (Rattus norvegicus, UniProt P49187); assay: Kinase panel screen; assay type: biochemical; conditions: Compound I and ATP 10 μM
Sequence of INK3 (P49187 whole entry): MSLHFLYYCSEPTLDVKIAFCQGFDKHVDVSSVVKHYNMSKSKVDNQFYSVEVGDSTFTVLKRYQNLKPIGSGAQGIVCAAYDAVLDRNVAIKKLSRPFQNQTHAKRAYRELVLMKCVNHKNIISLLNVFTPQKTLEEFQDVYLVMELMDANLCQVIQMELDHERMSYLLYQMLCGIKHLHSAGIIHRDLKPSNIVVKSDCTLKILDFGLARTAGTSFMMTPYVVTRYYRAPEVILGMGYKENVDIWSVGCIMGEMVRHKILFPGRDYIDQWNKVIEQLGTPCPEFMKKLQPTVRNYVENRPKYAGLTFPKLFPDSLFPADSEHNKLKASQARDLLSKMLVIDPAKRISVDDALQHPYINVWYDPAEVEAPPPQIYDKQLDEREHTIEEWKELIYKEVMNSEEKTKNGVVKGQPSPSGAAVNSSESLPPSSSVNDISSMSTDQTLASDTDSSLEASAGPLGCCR

FGFR2 = target: T3, FGFR2 (Homo sapiens, UniProt P21802); assay: Kinase panel screen; assay type: biochemical; conditions: Compound I and ATP 10 μM
T3 construct: purchased Upstate USA or Invitrogen (contract screening service)

Plk3 = target: T4, Plk3 (Homo sapiens, UniProt Q9H4B4); assay: Kinase panel screen; assay type: biochemical; conditions: Compound I and ATP 10 μM
T4 construct: purchased Upstate USA or Invitrogen (contract screening service)

PDGFRa = target: T5, PDGFRa (Homo sapiens, UniProt P16234); assay: Kinase panel screen; assay type: biochemical; conditions: Compound I and ATP 10 μM
T5 construct: purchased Upstate USA or Invitrogen (commercial screening service)
T5 sequence (P16234 24-1089): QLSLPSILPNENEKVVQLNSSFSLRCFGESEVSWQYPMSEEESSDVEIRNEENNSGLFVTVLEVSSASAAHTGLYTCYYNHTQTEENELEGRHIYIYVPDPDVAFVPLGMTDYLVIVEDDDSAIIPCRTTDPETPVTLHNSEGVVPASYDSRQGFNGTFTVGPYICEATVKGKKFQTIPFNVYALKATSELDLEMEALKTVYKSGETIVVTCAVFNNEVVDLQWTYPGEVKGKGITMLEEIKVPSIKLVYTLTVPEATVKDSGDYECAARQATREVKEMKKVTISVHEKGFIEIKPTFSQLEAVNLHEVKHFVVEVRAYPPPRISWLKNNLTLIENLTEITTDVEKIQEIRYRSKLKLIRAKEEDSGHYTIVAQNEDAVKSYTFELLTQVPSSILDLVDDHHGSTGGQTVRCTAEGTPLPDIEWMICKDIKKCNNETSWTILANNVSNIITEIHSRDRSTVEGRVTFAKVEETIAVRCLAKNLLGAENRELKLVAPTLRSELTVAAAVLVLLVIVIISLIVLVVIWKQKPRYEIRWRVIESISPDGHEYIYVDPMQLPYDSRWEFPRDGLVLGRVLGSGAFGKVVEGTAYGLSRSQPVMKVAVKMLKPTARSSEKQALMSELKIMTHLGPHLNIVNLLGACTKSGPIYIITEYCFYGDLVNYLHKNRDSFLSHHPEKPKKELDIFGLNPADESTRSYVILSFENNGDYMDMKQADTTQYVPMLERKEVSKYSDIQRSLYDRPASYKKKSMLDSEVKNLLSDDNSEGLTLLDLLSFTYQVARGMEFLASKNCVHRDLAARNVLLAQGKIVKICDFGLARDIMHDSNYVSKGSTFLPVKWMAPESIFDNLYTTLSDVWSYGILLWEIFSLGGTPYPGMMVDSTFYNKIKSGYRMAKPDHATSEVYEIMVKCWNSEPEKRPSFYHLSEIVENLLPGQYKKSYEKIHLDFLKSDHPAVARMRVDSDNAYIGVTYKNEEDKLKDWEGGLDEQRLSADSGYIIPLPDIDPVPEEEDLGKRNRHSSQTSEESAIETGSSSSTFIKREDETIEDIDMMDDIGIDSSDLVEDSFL

CDK2 = target: T6, CDK2 (Homo sapiens, UniProt P24941); assay: Kinase panel screen; assay type: biochemical; conditions: Compound I and ATP 10 μM
T6 construct: purchased Upstate USA or Invitrogen (commercial screening service)

EC = EC proliferation; assay type: cell-based; conditions: inhibitors at 10 μM; 24, 48, 72 h
Method: Inhibition of cell proliferation and signaling. (a) EC were cultured in the presence of vehicle (DMSO) or PI3K inhibitors (all at 10 μM); cell proliferation was assessed either 24 (open bar), 48 (grey bar), or 72 h (black bar) later.
Applicants therefore compared the compounds profiled in Table 1 for their effects on cell proliferation.

Flt1 = target: T7, Flt1 (Homo sapiens, UniProt P17948); assay: Kinase panel screen; assay type: biochemical; conditions: Compound I and ATP 10 μM
T7 construct: purchased Upstate USA or Invitrogen (commercial screening service)

PKC0 = target: T8, PKC0 (Homo sapiens, UniProt Q04759); assay: Kinase panel screen; assay type: biochemical; conditions: Compound I and ATP 10 μM
T8 construct: purchased Upstate USA or Invitrogen (commercial screening service)
T8 sequence (Q04759 whole entry): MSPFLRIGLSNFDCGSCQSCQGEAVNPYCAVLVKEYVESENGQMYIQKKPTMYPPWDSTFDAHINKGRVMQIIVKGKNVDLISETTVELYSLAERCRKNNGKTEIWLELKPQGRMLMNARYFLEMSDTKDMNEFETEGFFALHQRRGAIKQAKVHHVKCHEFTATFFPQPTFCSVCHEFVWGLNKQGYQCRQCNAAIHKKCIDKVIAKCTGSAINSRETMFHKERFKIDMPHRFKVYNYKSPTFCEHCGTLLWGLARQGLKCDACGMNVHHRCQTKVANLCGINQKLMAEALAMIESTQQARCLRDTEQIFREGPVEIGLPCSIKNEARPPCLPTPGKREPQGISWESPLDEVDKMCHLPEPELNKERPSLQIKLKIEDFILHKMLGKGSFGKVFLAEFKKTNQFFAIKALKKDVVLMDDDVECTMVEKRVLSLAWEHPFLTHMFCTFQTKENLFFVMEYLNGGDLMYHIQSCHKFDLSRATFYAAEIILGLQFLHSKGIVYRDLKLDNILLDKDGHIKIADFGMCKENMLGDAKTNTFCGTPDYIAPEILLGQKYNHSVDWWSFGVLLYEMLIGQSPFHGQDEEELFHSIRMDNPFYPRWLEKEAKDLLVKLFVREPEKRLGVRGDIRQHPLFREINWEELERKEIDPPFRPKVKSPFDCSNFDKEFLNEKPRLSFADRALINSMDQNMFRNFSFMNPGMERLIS

MAPK2 = target: T9, MAPK2 (Homo sapiens, UniProt P28482); assay: Kinase panel screen; assay type: biochemical; conditions: Compound I and ATP 10 μM
T9 construct: purchased Upstate USA or Invitrogen (commercial screening service)
T9 sequence (P28482 whole entry): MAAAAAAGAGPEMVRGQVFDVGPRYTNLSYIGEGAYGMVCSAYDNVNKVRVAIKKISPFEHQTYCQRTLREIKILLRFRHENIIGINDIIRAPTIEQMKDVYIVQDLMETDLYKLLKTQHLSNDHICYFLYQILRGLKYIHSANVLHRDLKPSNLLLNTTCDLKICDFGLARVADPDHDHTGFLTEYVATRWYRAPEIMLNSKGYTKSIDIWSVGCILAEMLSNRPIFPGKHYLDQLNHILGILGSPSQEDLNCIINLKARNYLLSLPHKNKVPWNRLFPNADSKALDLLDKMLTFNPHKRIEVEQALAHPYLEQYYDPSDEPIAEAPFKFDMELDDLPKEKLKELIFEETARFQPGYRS

PKCa = target: T10, PKCa (Homo sapiens, UniProt P17252); assay: Kinase panel screen; assay type: biochemical; conditions: Compound I and ATP 10 μM
T10 construct: purchased Upstate USA or Invitrogen (contract screening service)

MAPK3 = target: T11, MAPK3 (Homo sapiens, UniProt P27361); assay: Kinase panel screen; assay type: biochemical; conditions: Compound I at 1 μM and ATP at the apparent Km
T11 construct: purchased Upstate USA or Invitrogen (commercial screening service)

Akt phosphorylation = assay: VEGF-induced Akt phosphorylation in vivo (lung lysates, Western blot); design: species or system Sprague Dawley rats; conditions: 0.5 and 5 mg/kg iv, VEGF 30, 60 or 120 min later
Method: FIG. 5. Inhibition of VEGF-induced Akt phosphorylation in vivo. […] Lungs were explanted 5 min after VEGF or saline injection, processed to tissue lysates, and lysates probed in Western blots to detect either phosphorylated Akt or total Akt (as a loading control).
The ability of compounds to impact PI3K activity in vivo was assessed by examining compound influence on vascular endothelial growth factor (VEGF)-induced Akt kinase phosphorylation (VEGF stimulation being an inducer of PI3K activity, and Akt kinase being a direct target of PI3K). Sprague Dawley rats were first injected intravenously (iv) with either vehicle or test compound at 5 mg/kg, and then 30, 60 or 120 min later injected iv with VEGF. Five minutes later, lungs were harvested and used to generate tissue lysates, which were then probed for phosphorylated Akt using Western blot technology; non-phosphorylated Akt was also probed in the same blots as a loading control. In other studies, test compounds was dosed at either 0.5 or 5 mg/kg, and VEGF delivered 60 min later, in order to assess the dose-response relationship of a compound's activities. […]

Syk = target: T12, Syk (Homo sapiens, UniProt P43405); assay: Kinase panel screen; assay type: biochemical; conditions: Compound I and ATP 10 μM
T12 construct: purchased Upstate USA or Invitrogen (contract screening service)

PKCpi = target: T13, PKCpi (Homo sapiens, UniProt P05771); assay: Kinase panel screen; assay type: biochemical; conditions: Compound I and ATP 10 μM
T13 construct: purchased Upstate USA or Invitrogen (commercial screening service)

PAK4 = target: T14, PAK4 (Homo sapiens, UniProt O96013); assay: Kinase panel screen; assay type: biochemical; conditions: Compound I and ATP 10 μM
T14 construct: purchased Upstate USA or Invitrogen (commercial screening service)
T14 sequence (O96013 whole entry): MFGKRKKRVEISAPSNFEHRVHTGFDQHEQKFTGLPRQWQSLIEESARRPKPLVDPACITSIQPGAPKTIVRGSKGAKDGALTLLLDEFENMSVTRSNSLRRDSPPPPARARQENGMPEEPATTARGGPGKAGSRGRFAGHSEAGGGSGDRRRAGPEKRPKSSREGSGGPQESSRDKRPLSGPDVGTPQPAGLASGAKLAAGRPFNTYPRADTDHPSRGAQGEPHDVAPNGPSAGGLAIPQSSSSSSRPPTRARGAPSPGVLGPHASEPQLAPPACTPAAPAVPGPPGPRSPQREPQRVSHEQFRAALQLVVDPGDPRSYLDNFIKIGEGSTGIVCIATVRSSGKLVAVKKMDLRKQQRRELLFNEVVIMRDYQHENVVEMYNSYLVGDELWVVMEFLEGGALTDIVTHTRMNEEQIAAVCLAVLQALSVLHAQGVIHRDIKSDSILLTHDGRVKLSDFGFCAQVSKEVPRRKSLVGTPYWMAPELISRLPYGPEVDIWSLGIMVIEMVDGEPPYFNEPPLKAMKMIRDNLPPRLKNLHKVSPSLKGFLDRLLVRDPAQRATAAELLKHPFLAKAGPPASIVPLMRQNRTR

PKB 3 = PKB 3 (Homo sapiens, UniProt P31751); assay: Kinase panel screen; assay type: biochemical; conditions: read-out: Percent Control, PKB 3
Sequence of PKB 3 (P31751 whole entry): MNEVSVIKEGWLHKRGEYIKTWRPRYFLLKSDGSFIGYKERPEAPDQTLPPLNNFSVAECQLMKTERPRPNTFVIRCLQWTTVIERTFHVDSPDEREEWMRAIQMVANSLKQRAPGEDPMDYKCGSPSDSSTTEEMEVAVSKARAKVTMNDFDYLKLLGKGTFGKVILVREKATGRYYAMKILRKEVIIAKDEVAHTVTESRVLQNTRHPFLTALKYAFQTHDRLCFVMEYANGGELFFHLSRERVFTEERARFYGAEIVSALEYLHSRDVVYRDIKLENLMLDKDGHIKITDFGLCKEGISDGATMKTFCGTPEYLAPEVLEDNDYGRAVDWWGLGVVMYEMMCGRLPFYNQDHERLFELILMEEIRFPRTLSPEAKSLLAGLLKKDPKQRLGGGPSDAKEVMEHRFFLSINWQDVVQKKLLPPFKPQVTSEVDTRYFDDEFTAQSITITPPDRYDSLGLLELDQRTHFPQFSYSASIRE

Nc1nc(N)c2nc(-c3cccc(O)c3)c(-c3cccc(O)c3)nc2n1 [Compound I, 6,7-bis-(3-hydroxyphenyl)-pteridine-2,4-diamine]
Increase in Paw Volume vs. Controls ([1]; 5 mg/kg iv 30 min before, 3 hours, mean±SEM N=6, vehicle 71 ± 9): 27 ± 4 mm^3 | edema and leukocyte infiltration (histology) ([1]; 5 mg/kg pretreatment, three hours): strongly antagonized; also recorded: blocked | reduction of paw volume ([1]; n=8): 62% | Percent Control, SGK (SGK): 95% | Percent Control, Pim-1 (Pim-1): 70% | Percent Control, INK3(r) (INK3): 64% | Percent Control, FGFR2 (FGFR2): 73% | Percent Control, Plk3 (Plk3): 97% | Percent Control, PDGFRa (PDGFRa): 86% | Percent Control, CDK2 (second entry) (CDK2): 77% | effect on EC proliferation (EC): no effects | Percent Control, Flt1 (Flt1): 62% | Percent Control, PKC0 (PKC0): 73% | Percent Control, MAPK2 (MAPK2): 84% | Percent Control, PKCa (PKCa): 90% | Percent Control, MAPK3* (MAPK3): 99% | VEGF-induced Akt phosphorylation in lung lysates (Akt phosphorylation): blocked | VEGF-induced Akt phosphorylation in lung lysates (Akt phosphorylation; listed as 6,7-bis-(3-hydroxyphenyl)-pteridine-2,4-diamine): Inhibition | Percent Control, Syk (Syk): 76% | Percent Control, PKCpi (PKCpi): 90% | Percent Control, PAK4 (PAK4): 78% | remaining activity at 10 µM (PKB 3): 103%
